From patent US7320679B2, “Therapeutic use of growth factor, and delivery device, especially for the treatment of intimal hyperplasia” (Ark Therapeutics, Ltd., priority 1996, dated 2008)
Entries after “also recorded” stand apart in the source; their conditions may differ.

Key:
[1] = test system: 205 kD protein corresponding to VEGF receptor; test: Anti-phosphotyrosine immunoprecipitation/immunoblot in HUVEC; format: cell-based, human; conditions: 100 μM L-NAME 1 h pretreatment; 10 ng/ml VEGF 10 min
Protocol: In some experiments, cells were pretreated for 1 h with 100 μM L-NAME and subsequently treated either with or without. […] The medium was removed and cells were rapidly lysed at 4° C. by addition of 10 mM Tris/HCl (pH 7.6), 5 mM EDTA, 50 mM NaCl, 30 mM sodium pyrophosphate, 50 mM NaF, 0.1 mM Na3VO4, 1 mM PMSF and 1% Triton X-100 (lysis buffer). Lysates were clarified by centrifugation at 15000×g for 10 min, and immunoprecipitations were performed by incubating clarified lysates with PY20 anti-phosphotyrosine mAb for 2 h at […] Immunoprecipitates were collected by incubating lysates for a further 1 hour with protein A-agarose. Immunoprecipitates were washed three times with lysis buffer and proteins were then extracted with 2×SDS-PAGE sample buffer. After SDS-PAGE, immunoprecipitated proteins were transferred to membranes and then immunoblotted with PY20 mAb.

[2] = test system: carotid arteries (intimal thickening); test: Collar-induced intimal thickening in rabbit carotid arteries after adventitial plasmid/liposome gene transfer; format: in vivo, New Zealand White rabbits; conditions: L-NAME 70 mg/kg/d in drinking water; 7 days after gene transfer
From the text: The model preserved EC integrity and permitted direct extravascular gene transfer without any intravascular manipulation.
Gene Transfer: Intimal thickening was induced in the carotid arteries of thirty-two New Zealand White rabbits by inserting an inert silicone collar around the arteries under a general anaesthesia (Booth et al, Atherosclerosis (1989) 76:257-268). […] No intravascular manipulations were involved in any steps of the studies. […] Plasmids used for the studies were isolated from E. coli cultures (DH5α) using Qiagen Mega columns and purified using three phenol/chloroform extractions and one ethanol precipitation (Ausubel et al, eds. Current Protocols in Molecular Biology. New York, N.Y.: Greene Publishing Associates and John Wiley & Sons (1991) 4.2.3-4.2.4) were adjusted to 1 μg/μl and analysed to be free of any microbiological or endotoxin contamination (Limulus assay, detection limit 0.2 ng). […] Differences in the intima/media thickness ratios between the groups were analysed by ANOVA, followed by modified t-test (*p<0.05). […]
Gene transfer was carried out as described in Example 1.1. […] Animals were sacrificed 7 days after gene transfer and analysed for the intima/media thickness ratio and histology as described above (Ylä-Herttuala et al, Arteriosclerosis (1986) 6: 230-236; Ylä-Herttuala et al (1990) supra). […]

NO production in HUVEC = test: Nitrite (NO) production in HUVEC, capillary detection method; format: cell-based, human
Protocol: Nitrite production was measured using capillary detection method (Leone et al, in Methods in Nitric Oxide Research, Feelisch and Stanler, eds. John Wiley & Sons, New York (1996) 499-508).

COC(=O)[C@@H](N)CCCNC(=N)N[N+](=O)[O-] [L-NAME]
effect of L-NAME on VEGF-induced phosphorylation [1]: abolishes the response to VEGF; also recorded: completely abolished
effect of L-NAME on the difference in intimal thickening between VEGF- and lacZ-transfected arteries [2]: abolished
effect of L-NAME on VEGF-induced NO production (NO production in HUVEC; 100 μM L-NAME): completely abolished
nitrite production level after L-NAME (NO production in HUVEC; L-NAME 100 μM pretreatment 1 hour, then 25 ng/ml VEGF 10 minutes): ~17 µM
